The text below walks through data of US20040067531A1, “Methods of modulating protein tyrosine kinase function with substituted indolinone compounds” (SUGEN, INC., priority 1997, published 2004).

For assay [1], the target named is T1, FLK-1 receptor (Mus musculus, UniProt P35918).
T1 construct: expressed in transfected cells; host or cells: NIH3T3 C7#3
The experiment in a line: ELISA assay measuring the kinase activity of the FLK-1 receptor in cells engineered to express FLK-1. The assay is classed as cell-based. The settings on record: NIH3T3 C7#3 FLK-1 expressing cells, VEGF stimulation, phosphotyrosine ELISA. As to the method:
An ELISA assay was conducted to measure the kinase activity of the FLK-1 receptor and more specifically, the inhibition or activation of TK activity on the FLK-1 receptor. Specifically, the following assay was conducted to measure kinase activity of the FLK-1 receptor in cells genetically engineered to express FLK-1.
(11) NIH3T3 C7#3 Cells (FLK-1 expressing cells);
The following protocol was used for conducting the assay:
1. Coat Corning 96-well elisa plates with 1.0 μg per well Cappel Anti-rabbit IgG antibody in 0.1 M Na2CO3 pH 9.6. Bring final volume to 150 μL per well. Coat plates overnight at 4° C. Plates can be kept up to two weeks when stored at 4° C.
2. Grow cells in Growth media (DMEM, supplemental with 2.0 mM L-Glutamine, 10% FBS) in suitable culture dishes until confluent at 37° C., 5% CO2.
3. Harvest cells by trypsinization and seed in Corning 25850 polystyrene 96-well roundbottom cell plates, 25.000 cells/well in 200 μL of growth media.
4. Grow cells at least one day at 37° C., 5% CO2.
5. Wash cells-with D-PBS 1×.
6. Add 200 μL/well of starvation media (DMEM, 2.0 mM 1-Glutamine, 0.1% FBS). Incubate overnight at 37° C., 5% CO2.
7. Dilute Compounds 1:20 in polypropylene 96 well plates using starvation media. Dilute dimethylsulfoxide 1:20 for use in control wells.
8. Remove starvation media from 96 well cell culture plates and add 162 μL of fresh starvation media to each well.
9. Add 18 μL of 1:20 diluted Compound dilution (from step 7) to each well plus the 1:20 dimethylsulfoxide dilution to the control wells (+/− VEGF), for a final dilution of 1:200 after cell stimulation. Final dimethylsulfoxide is 0.5%. Incubate the plate at 37° C., 5% CO2 for two hours.
10. Remove unbound antibody from ELISA plates by inverting plate to remove liquid. Wash 3 times with TBSW+0.5% ethanolamine, pH 7.0. Pat the plate on a paper towel to remove excess liquid and bubbles.
11. Block plates with TBSW+0.5% Ethanolamine, pH 7.0, 150 μL per well. Incubate plate thirty minutes while shaking on a microliter plate shaker.
12. Wash plate 3 times as described in step 10.
13. […] Bring final volume to 150 μL/well with TBSW+0.5% ethanolamine pH 7.0. Incubate plate for thirty minutes while shaking.
14. Add 180 μL starvation medium to the cells and stimulate cells with 20 μL/well 10.0 mM sodium ortho vanadate and 500 ng/mL VEGF (resulting in a final concentration of 1.0 mM sodium ortho vanadate and 50 ng/mL VEGF per well) for eight minutes at 37° C., 5% CO2. Negative control wells receive only starvation medium.
15. After eight minutes, media should be removed from the cells and washed one time with 200 μL/well PBS.
16. Lyse cells in 150 μL/well HNTG while shaking at room temperature for five minutes. HNTG formulation includes sodium ortho vanadate, sodium pyro phosphate and EDTA.
17. Wash ELISA plate three times as described in step 10.
18. Transfer cell lysates from the cell plate to ELISA plate and incubate while shaking for two hours. To transfer cell lysate pipette up and down while scrapping the wells.
19. Wash plate three times as described in step 10.
20. Incubate ELISA plate with 0.02 μg/well UB40 in TBSW+05% ethanolamine. Bring final volume to 150 μL/well. Incubate while shaking for 30 minutes.
21. Wash plate three times as described in step 10.
22. Incubate ELISA plate with 1:10,000 diluted EIA grade goat anti-mouse IgG conjugated horseradish peroxidase in TBSW+0.5% ethanolamine, pH 7.0. Bring final volume to 150 μL/well. Incubate while shaking for thirty minutes.
23. Wash plate as described in step 10.
24. Add 100 μL of ABTS/H2O2 solution to well. Incubate ten minutes while shaking.
25. Add 100 μL of 0.2 M HCl for 0.1 M HCl final to stop the color development reaction. Shake 1 minute at room temperature. Remove bubbles with slow stream of air and read the ELISA plate in an ELISA plate reader at 410 nm.
(§1) The IC50 values were measured for several of the compounds of the invention.

The test system of assay [2] is 3T3 cell line genetically engineered to express human PDGF-R. Description: PDGF-induced BrdU incorporation assay. The format is cell-based. The settings on record: NIH3T3; 3T3 cells expressing human PDGF-R, PDGF 3.8 nM; read-out: PDGF-Induced BrdU Incorp. IC50. As to the method: (1) PDGF: human PDGF B/B; 1276-956, Boehringer Mannheim, Germany
(8) 3T3 cell line genetically engineered to express human PDGF-R.
(§2) 1. Cells were seeded at 8000 cells/well in DMEM, 10% CS, 2 mM Gln in a 96 well plate. Cells were incubated overnight at 37° C. in 5% CO2.
(§3) 2. After 24 hours, the cells were washed with PBS, and then were serum starved in serum free medium (0% CS DMEM with 0.1% BSA) for 24 hours.
(§4) 3. On day 3, ligand (PDGF=3.8 nM, prepared in DMEM with 0.1% BSA) and test compounds were added to the cells simultaneously. The negative control wells received serum free DMEM with 0.1% BSA only; the positive control cells received the ligand (PDGF) but no test compound. Test compounds were prepared in serum free DMEM with ligand in a 96 well plate, and serially diluted for 7 test concentrations.
(§5) 4. After 20 hours of ligand activation, diluted BrdU labeling reagent (1:100 in DMEM, 0.1% BSA) was added and the cells were incubated with BrdU (final concentration=10 μM) for 1.5 hours.
(§6) 5. After incubation with labeling reagent, the medium was removed by decanting and tapping the inverted plate on a paper towel. FixDenat solution was added (50 μL/well) and the plates were incubated at room temperature for 45 minutes on a plate shaker.
(§7) 6. The FixDenat solution was thoroughly removed by decanting and tapping the inverted plate on a paper towel. Milk was added (5% dehydrated milk in PBS, 200 μL/well) as a blocking solution and the plate was incubated for 30 minutes at room temperature on a plate shaker.
(§8) 7. The blocking solution was removed by decanting and the wells were washed once with PBS. Anti-BrdU-POD solution (1:100 dilution in PBS, 1% BSA) was added (100 μL/well), and the plate was incubated for 90 minutes at room temperature on a plate shaker.
(§9) 8. The antibody conjugate was thoroughly removed by decanting and rinsing the wells 5 times with PBS, and the space was dried by inverting and tapping on a paper towel.
(§10) 9. TMB substrate solution was added (100 μL/well) and incubated for 20 minutes at room temperature on a plate shaker until color development was sufficient for photometric detection.
(§11) 10. The absorbance of the samples were measured at 410 nm (in “dual wavelength” mode with a filter reading at 490 nm, as a reference wavelength) on a Dynatech ELISA plate reader.
(§12) The IC50 values were measured for several of the compounds of the invention. These values are depicted in Table 10.
(Dividing cells build labelled thymidine or BrdU into new DNA.)

Assay [3] concerns FGF-induced BrdU incorporation. The experiment in a line: FGF-induced BrdU incorporation assay. The assay is classed as cell-based. Conditions: read-out: FGF-Induced BrdU Incorp. IC50. As to the method:
(§13) PDGF-, FGF-, and EGF-Induced BRDU Incorporation Assay
as §2, §3, §4, §5, §6, §7, §8, §9, §10, §11, §12

The subject of assay [4] is EGF-induced BrdU incorporation. The experiment in a line: EGF-induced BrdU incorporation assay. The format is cell-based. Conditions: read-out: EGF-Induced BrdU Incorp. IC50. Here is the method: as §13, §2, §3, §4, §5, §6, §7, §8, §9, §10, §11, §12
Assay [5] deals with Myc-GyrB-FGFR fusion protein (Homo sapiens, UniProt P11362). The experiment in a line: ELISA assay measuring the kinase activity of the FGF receptor (Myc-GyrB-FGFR from COS/FGFR cell lysate). The format is biochemical. Conditions: 7 μM ATP.
Chain of Myc-GyrB-FGFR fusion protein (P11362 398-822): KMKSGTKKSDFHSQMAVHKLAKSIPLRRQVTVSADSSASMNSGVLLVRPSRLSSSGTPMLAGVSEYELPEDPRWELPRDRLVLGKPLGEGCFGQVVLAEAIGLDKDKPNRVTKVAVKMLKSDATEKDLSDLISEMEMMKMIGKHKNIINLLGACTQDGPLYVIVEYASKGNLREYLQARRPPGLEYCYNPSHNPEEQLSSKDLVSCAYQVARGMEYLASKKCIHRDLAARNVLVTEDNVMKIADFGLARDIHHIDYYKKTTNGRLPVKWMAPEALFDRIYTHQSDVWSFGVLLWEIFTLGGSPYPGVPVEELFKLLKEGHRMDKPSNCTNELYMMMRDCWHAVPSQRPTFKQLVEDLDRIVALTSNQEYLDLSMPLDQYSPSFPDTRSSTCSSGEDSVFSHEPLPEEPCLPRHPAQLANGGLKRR
Description: The following protocol describes the reagents and procedures used to analyze protein-tyrosine kinase activity of the Myc-GyrB-FGFR fusion protein.
Coat Corning 96 well ELISA plates with 1.0 μg/well of Rabbit αGyrB antibody in PBS for a total well volume of 100 μL. Store overnight at 4° C.
Remove unbound Rabbit antibody by inverting plate to remove liquid. Pat plate on a paper towel to remove excess liquid and bubbles
Add 100 μL of Blocking Buffer (TBB) to each well. Incubate while shaking on a microliter plate shaker at room temperature for 30 min.
Wash 4× with TBST. Pat plate on a paper towel to remove excess liquid and bubbles.
Add 15 μg COS/FGFR cell lysate Myc-GyrB-FGFR sources per well in HNTG for a final volume of 100 μL per well. Incubate while shaking on a micro-liter plate shaker at room temperature for 2 hours.
Wash 4× with TBST as described in step 4.
Add 80 μL of 1× kinase buffer per well.
Dilute compunds/extracts 1:10 (or as stated otherwise) in 1× kinase buffer +1% DMSO in a polypropylene 96 well plate.
At this point diluted Compounds/Extracts are added to the ELISA plate. […]
For assay [6], the target named is T2, EGFR protein (Homo sapiens, UniProt P00533).
T2 construct: A431 cell lysate; endogenous in cells; host or cells: A431
T2 sequence (P00533 25-1210): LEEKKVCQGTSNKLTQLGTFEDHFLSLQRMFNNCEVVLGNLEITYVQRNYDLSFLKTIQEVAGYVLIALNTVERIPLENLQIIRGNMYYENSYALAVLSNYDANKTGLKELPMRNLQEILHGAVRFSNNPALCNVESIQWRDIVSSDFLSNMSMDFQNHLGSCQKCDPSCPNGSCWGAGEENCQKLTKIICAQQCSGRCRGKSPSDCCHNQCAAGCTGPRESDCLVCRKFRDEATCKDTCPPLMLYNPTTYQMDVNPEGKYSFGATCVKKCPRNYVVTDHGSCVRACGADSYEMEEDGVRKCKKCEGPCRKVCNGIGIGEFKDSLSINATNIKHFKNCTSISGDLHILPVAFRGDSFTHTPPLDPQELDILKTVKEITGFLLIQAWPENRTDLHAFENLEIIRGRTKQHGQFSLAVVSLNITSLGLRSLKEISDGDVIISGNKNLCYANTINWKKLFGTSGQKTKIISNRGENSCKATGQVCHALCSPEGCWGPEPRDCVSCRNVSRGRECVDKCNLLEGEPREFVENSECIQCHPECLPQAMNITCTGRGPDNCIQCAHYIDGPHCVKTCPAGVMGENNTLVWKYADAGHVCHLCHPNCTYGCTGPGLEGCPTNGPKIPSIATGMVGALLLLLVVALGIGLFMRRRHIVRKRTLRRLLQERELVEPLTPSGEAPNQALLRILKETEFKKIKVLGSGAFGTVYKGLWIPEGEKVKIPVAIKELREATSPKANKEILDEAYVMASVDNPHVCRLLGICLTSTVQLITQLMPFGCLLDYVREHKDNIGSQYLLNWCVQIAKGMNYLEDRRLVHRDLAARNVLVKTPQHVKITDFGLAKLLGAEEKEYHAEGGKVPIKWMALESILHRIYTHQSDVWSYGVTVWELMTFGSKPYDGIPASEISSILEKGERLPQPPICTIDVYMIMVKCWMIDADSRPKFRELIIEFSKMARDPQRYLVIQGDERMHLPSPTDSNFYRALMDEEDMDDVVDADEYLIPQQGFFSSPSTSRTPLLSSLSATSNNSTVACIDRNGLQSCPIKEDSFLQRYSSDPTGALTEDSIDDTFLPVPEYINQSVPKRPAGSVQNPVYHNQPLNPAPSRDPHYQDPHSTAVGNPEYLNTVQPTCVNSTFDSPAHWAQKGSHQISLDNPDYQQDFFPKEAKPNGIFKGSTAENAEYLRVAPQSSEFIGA
Description: ELISA assay measuring the kinase activity of the EGF receptor (EGFR captured from A431 cell lysate). The format is biochemical. As to the method: The following protocol describes the reagents and procedures used to analyze protein tyrosine kinase activity on the EGFR protein.
All of the following steps are conducted at room temperature unless it is specifically indicated. All ELISA plate washing is by rinsing 4× with TBST.
1. Coat Corning 96 well ELISA plates with 0.5 μg/well of SUMO1 in a volume of 100 μL PBS. Store overnight at 4° C.
2. Remove unbound SUMO1 by inverting plate to remove liquid. Wash plates with distilled water. Pat plate on a paper towel to remove excess liquid and bubbles
3. Add 150 μL of Blocking Buffer to each well. Incubate while shaking on a microliter plate shaker at room temperature for 30 min.
4. Wash 3× with deionized water, then once with TBST. Pat plate on a paper towel to remove excess liquid and bubbles.
5. Dilute lysate in PBS (7 μg of lysate/100 μL of PBS).
6. Add 100 μL of diluted lysate to each well. Shake at room temperature for 60 min.
7. Wash as described in step 4.
8. Add 120 μL TBS to ELISA plate containing captured EGFR.
9. Dilute drugs/extracts 1:10 (unless specified otherwise) in TBS in 96-well polypropylene plates.
10. Add 13.5 μL diluted drugs/extracts to ELISA plate.
11. Incubate for 30 minutes while shaking at room temperture.
12. […] Incubate while shaking on a micro-liter plate shaker at room temperature for 5 min.
13. Stop Kinase reaction with the addition of 16.5 μL of 200 mM EDTA pH 8.0 to all wells.
14. Wash 4× with deionized water and twice with TBST.
15. Add 100 μL per well of anti-phosphotyrosine (1:3000 dilution in TBST). Incubate while shaking on a micro-liter plate shaker 30-45 minutes at room temperature while shaking.
16. Wash as described in step 4.
17. Add 100 μL per well of biosource Goat anti-rabbit IgG peroxidase conjugate (1:2000 dilution in TBST). Incubate 30 min. at room temerature while shaking.
18. Wash as described in step 4.
19. Add 100 μL of ABTS/H2O2 solution to each well.
20. Incubate 5 to 15 minutes while shaking. Remove any bubbles.
21. If necessary stop reaction with the addition of 10 μL of 0.2 M HCl/well.
22. Read assay on Dynatech MR7000 ELISA Plate Reader.
as §1

T1 sequence (P35918 20-1345): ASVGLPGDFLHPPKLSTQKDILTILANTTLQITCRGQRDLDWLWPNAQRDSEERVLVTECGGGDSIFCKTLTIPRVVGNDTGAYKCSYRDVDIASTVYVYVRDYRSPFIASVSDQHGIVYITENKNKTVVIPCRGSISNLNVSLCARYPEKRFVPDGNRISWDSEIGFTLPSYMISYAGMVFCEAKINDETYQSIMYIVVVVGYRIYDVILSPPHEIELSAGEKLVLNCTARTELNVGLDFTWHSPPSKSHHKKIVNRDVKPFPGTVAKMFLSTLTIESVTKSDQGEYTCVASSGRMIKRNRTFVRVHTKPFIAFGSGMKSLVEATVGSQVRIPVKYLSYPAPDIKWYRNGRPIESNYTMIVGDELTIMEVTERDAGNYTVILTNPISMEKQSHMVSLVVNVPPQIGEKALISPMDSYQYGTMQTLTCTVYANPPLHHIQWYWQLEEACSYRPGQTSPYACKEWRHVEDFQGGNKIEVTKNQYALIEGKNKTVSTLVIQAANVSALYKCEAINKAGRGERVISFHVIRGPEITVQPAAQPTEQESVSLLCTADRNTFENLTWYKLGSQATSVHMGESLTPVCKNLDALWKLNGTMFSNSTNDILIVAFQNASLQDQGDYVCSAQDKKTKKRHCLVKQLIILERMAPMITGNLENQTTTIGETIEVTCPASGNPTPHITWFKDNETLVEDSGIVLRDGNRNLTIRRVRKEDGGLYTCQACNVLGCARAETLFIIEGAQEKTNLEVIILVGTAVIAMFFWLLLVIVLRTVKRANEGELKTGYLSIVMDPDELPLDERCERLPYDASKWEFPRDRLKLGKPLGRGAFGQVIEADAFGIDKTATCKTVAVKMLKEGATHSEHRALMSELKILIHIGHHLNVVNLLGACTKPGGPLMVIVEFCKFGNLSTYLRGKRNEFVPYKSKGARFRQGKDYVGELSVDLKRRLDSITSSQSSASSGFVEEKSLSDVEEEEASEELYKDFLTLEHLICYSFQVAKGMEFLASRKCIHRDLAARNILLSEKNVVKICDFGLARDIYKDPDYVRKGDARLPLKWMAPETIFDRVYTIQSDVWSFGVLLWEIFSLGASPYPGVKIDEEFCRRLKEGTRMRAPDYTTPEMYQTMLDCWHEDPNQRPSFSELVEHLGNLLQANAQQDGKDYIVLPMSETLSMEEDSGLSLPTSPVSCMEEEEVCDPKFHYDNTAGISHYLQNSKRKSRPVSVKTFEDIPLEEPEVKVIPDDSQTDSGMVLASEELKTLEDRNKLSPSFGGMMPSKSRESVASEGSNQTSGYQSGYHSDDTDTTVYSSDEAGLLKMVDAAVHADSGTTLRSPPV

For `O=C(O)CCc1c(C=C2C(=O)Nc3cc(Cl)ccc32)[nH]c2c1CCCC2` [IN-006, 3-[2-(6-Chloro-2-oxo-1,2-dihydro-indol-3-ylidenemethyl)-4,5,6,7-tetrahydro-1H-indol-3-yl]-propionic acid], the IC50 (commonly the concentration at which inhibition is half-maximal) in assay [1] turned out to be 0.031 µM; in assay [2], 3.7 µM; in assay [3], 30.2 µM; in assay [4], 63.6 µM.

In assay [1], `O=C(O)CCc1c(/C=C2\C(=O)Nc3ncccc32)[nH]c2c1CCCC2` [IN-014, 3-[2-(2-Oxo-1,2-dihydro-pyrrolo[2,3-b]pyridin-3-ylidenemethyl)-4,5,6,7-tetrahydro-1H-indol-3-yl]-propionic acid] registered an IC50 of 0.14 µM.

Consider `COc1cccc(-c2ccc3c(c2)NC(=O)C3=Cc2[nH]c3c(c2CCC(=O)O)CCCC3)c1` [IN-015, 3-{2-[6-(3-Methoxy-phenyl)-2-oxo-1,2-dihydro-indol-3-ylidenemethyl]-4,5,6,7-tetrahydro-1H-indol-3-yl}-propionic acid], for which, in assay [1], the IC50 is less than 0.78 µM.

Take `O=C(O)CCc1c(C=C2C(=O)Nc3cc(-c4ccccc4)ccc32)[nH]c2c1CCCC2` [IN-017, 3-[2-(2-Oxo-6-phenyl-1,2-dihydro-indol-3-ylidenemethyl)-4,5,6,7-tetrahydro-1H-indol-3-yl]-propionic acid]: the IC50 in assay [1] was less than 0.78 µM.

In assay [1], `COc1ccccc1-c1ccc2c(c1)NC(=O)C2=Cc1[nH]c2c(c1CCC(=O)O)CCCC2` [IN-018, 3-{2-[6-(2-Methoxy-phenyl)-2-oxo-1,2-dihydro-indol-3-ylidenemethyl]-4,5,6,7-tetrahydro-1H-indol-3-yl}-propionic acid] came in with an IC50 of 2.7 µM.

In assay [1], `CC(C)NS(=O)(=O)c1ccc2c(c1)C(=Cc1[nH]c3c(c1CCC(=O)O)CCCC3)C(=O)N2` [IN-019, 3-[2-(5-Isopropylaminosulfonyl-2-oxo-1,2-dihydro-indol-3-ylidenemethyl)-4,5,6 7-tetrahydro-1H-indol-3-yl]-propionic acid] gave an IC50 of less than 0.78 µM.

In turn, `O=C(O)CCc1ccccc1/C=C1/C(=O)Nc2ccccc21` [IN-025, 3-[2-(2-Oxo-1,2-dihydro-indol-3-ylidenemethyl)-phenyl]-propionic acid] yielded a concentration for half-maximal inhibition (IC50) in assay [5] of 30.2 µM.

With `Cc1ccc2c(c1)C(=Cc1[nH]cc(C)c1CCC(=O)O)C(=O)N2` [IN-032, 3-[2-(5-Methyl-2-oxo-1,2-dihydro-indol-3-ylidenemethyl)-4-methyl-1H-pyrrol-3-yl]-propionic acid], the IC50 is 11 µM in assay [2], 30 µM in assay [3] and greater than 50 µM in assay [4].

On to `COc1ccc2c(c1)C(=Cc1[nH]cc(C)c1CCC(=O)O)C(=O)N2` [IN-033, 3-[2-(5-Methoxy-2-oxo-1,2-dihydro-indol-3-ylidenemethyl)-4-methyl-1H-pyrrol-3-yl]-propionic acid], for which the IC50 was greater than 50 µM in assay [2], 35 µM in assay [3], greater than 100 µM in assay [6] and greater than 50 µM in assay [4].
